Test results from the NIST ThermoML archive (doi:10.1007/s10765-010-0766-0).
± gives the expanded uncertainty stated by the source.

Assay: wn = mass fraction of the nth substance listed
Settings: Liquid, Pycnometric method, w2 = 0.4981

FC(F)C(F)(F)F [pentafluoroethane] + FCF
Settings	mass density [kg/m3]
357.15 K, 9042 kPa	773.5 ± 1.3
357.15 K, 9048 kPa	773.4 ± 1.3
357.15 K, 16243 kPa	919 ± 1.7
357.15 K, 16254 kPa	918.9 ± 1.5
357.15 K, 16277 kPa	919.1 ± 1.7
358.15 K, 9284 kPa	773.4 ± 1.3
358.15 K, 9290 kPa	773.3 ± 1.3
358.15 K, 16617 kPa	918.9 ± 1.7
358.15 K, 16628 kPa	918.8 ± 1.5
358.15 K, 16652 kPa	919.1 ± 1.7
359.15 K, 9527 kPa	773.3 ± 1.3
359.15 K, 9532 kPa	773.3 ± 1.3
359.15 K, 16990 kPa	918.8 ± 1.6
359.15 K, 17003 kPa	918.7 ± 1.5
359.15 K, 17027 kPa	919 ± 1.6
360.15 K, 9770 kPa	773.3 ± 1.3
360.15 K, 9775 kPa	773.2 ± 1.3
360.15 K, 17365 kPa	918.7 ± 1.7
360.15 K, 17377 kPa	918.7 ± 1.5
360.15 K, 17401 kPa	918.9 ± 1.7
361.15 K, 10013 kPa	773.2 ± 1.3
361.15 K, 10019 kPa	773.1 ± 1.3
361.15 K, 17739 kPa	918.6 ± 2.5
361.15 K, 17752 kPa	918.6 ± 1.5
361.15 K, 17776 kPa	918.8 ± 2.5
362.15 K, 10256 kPa	773.2 ± 1.3
362.15 K, 10262 kPa	773.1 ± 1.3
362.15 K, 18113 kPa	918.5 ± 1.6
362.15 K, 18127 kPa	918.5 ± 1.5
362.15 K, 18151 kPa	918.7 ± 1.6
363.15 K, 10501 kPa	773.1 ± 1.3
363.15 K, 10506 kPa	773 ± 1.3
363.15 K, 18487 kPa	918.4 ± 2
363.15 K, 18501 kPa	918.4 ± 2
363.15 K, 18526 kPa	918.6 ± 2
364.15 K, 10745 kPa	773.1 ± 1.3
364.15 K, 10751 kPa	773 ± 1.3
364.15 K, 18862 kPa	918.4 ± 1.6
364.15 K, 18876 kPa	918.3 ± 1.5
364.15 K, 18899 kPa	918.5 ± 1.6
365.15 K, 10990 kPa	773 ± 1.3
365.15 K, 10996 kPa	772.9 ± 1.3
365.15 K, 19236 kPa	918.3 ± 1.6
365.15 K, 19250 kPa	918.3 ± 1.5
365.15 K, 19274 kPa	918.4 ± 1.8
366.15 K, 11235 kPa	772.9 ± 1.3
366.15 K, 11241 kPa	772.9 ± 1.3
366.15 K, 19610 kPa	918.2 ± 1.9
366.15 K, 19625 kPa	918.2 ± 1.5
366.15 K, 19649 kPa	918.4 ± 1.9
367.15 K, 11480 kPa	772.9 ± 1.3
367.15 K, 11486 kPa	772.8 ± 1.3
367.15 K, 19985 kPa	918.1 ± 1.5
367.15 K, 20000 kPa	918.1 ± 1.5
367.15 K, 20025 kPa	918.3 ± 1.5
368.15 K, 11726 kPa	772.8 ± 1.3
368.15 K, 11732 kPa	772.7 ± 1.3
368.15 K, 20360 kPa	918 ± 1.5
368.15 K, 20375 kPa	918 ± 1.5
368.15 K, 20400 kPa	918.2 ± 1.5
369.15 K, 11972 kPa	772.8 ± 1.3
369.15 K, 11979 kPa	772.7 ± 1.3
369.15 K, 20734 kPa	917.9 ± 1.5
369.15 K, 20750 kPa	917.9 ± 1.5
369.15 K, 20776 kPa	918.1 ± 1.5
370.15 K, 12219 kPa	772.7 ± 1.3
370.15 K, 12225 kPa	772.6 ± 1.3
370.15 K, 21109 kPa	917.8 ± 1.5
370.15 K, 21125 kPa	917.8 ± 1.5
370.15 K, 21150 kPa	918 ± 1.5
371.15 K, 12465 kPa	772.6 ± 1.3
371.15 K, 12472 kPa	772.6 ± 1.3
371.15 K, 21484 kPa	917.7 ± 1.5
371.15 K, 21500 kPa	917.7 ± 1.5
371.15 K, 21525 kPa	917.9 ± 1.5
372.15 K, 12712 kPa	772.6 ± 1.3
372.15 K, 12719 kPa	772.5 ± 1.3
372.15 K, 21859 kPa	917.6 ± 1.5
372.15 K, 21875 kPa	917.6 ± 1.5
372.15 K, 21901 kPa	917.8 ± 1.5
373.15 K, 12959 kPa	772.5 ± 1.3
373.15 K, 12966 kPa	772.5 ± 1.3
373.15 K, 22234 kPa	917.5 ± 1.5
373.15 K, 22250 kPa	917.6 ± 1.5
373.15 K, 22277 kPa	917.8 ± 1.5
374.15 K, 13207 kPa	772.5 ± 1.3
374.15 K, 13213 kPa	772.4 ± 1.3
374.15 K, 22609 kPa	917.5 ± 1.5
374.15 K, 22625 kPa	917.5 ± 1.5
374.15 K, 22654 kPa	917.7 ± 1.5
375.15 K, 13454 kPa	772.4 ± 1.3
375.15 K, 13461 kPa	772.3 ± 1.3
375.15 K, 22984 kPa	917.4 ± 1.5
375.15 K, 23000 kPa	917.4 ± 1.5
375.15 K, 23029 kPa	917.6 ± 1.5
376.15 K, 13702 kPa	772.3 ± 1.3
376.15 K, 13709 kPa	772.3 ± 1.3
376.15 K, 23359 kPa	917.3 ± 1.5
376.15 K, 23375 kPa	917.3 ± 1.5
376.15 K, 23406 kPa	917.5 ± 1.5
377.15 K, 13950 kPa	772.3 ± 1.3
377.15 K, 13957 kPa	772.2 ± 1.3
377.15 K, 23734 kPa	917.2 ± 1.5
377.15 K, 23750 kPa	917.2 ± 1.5
377.15 K, 23780 kPa	917.4 ± 1.5
378.15 K, 14198 kPa	772.2 ± 1.3
378.15 K, 14205 kPa	772.2 ± 1.3
378.15 K, 24109 kPa	917.1 ± 1.5
378.15 K, 24125 kPa	917.1 ± 1.5
378.15 K, 24155 kPa	917.3 ± 1.5
379.15 K, 14447 kPa	772.2 ± 1.3
379.15 K, 14454 kPa	772.1 ± 1.3
379.15 K, 24484 kPa	917 ± 1.5
379.15 K, 24500 kPa	917 ± 1.5
379.15 K, 24531 kPa	917.2 ± 1.5
380.15 K, 14696 kPa	772.1 ± 1.3
380.15 K, 14702 kPa	772 ± 1.3
380.15 K, 24858 kPa	916.9 ± 1.5
380.15 K, 24875 kPa	916.9 ± 1.5
380.15 K, 24906 kPa	917.1 ± 1.5
381.15 K, 14944 kPa	772.1 ± 1.3
381.15 K, 14951 kPa	772 ± 1.3
381.15 K, 25233 kPa	916.8 ± 1.5
381.15 K, 25250 kPa	916.8 ± 1.5
381.15 K, 25282 kPa	917 ± 1.5
382.15 K, 15194 kPa	772 ± 1.3
382.15 K, 15200 kPa	771.9 ± 1.3
382.15 K, 25608 kPa	916.7 ± 1.5
382.15 K, 25625 kPa	916.7 ± 1.5
382.15 K, 25657 kPa	916.9 ± 1.5
383.15 K, 15443 kPa	772 ± 1.3
383.15 K, 15449 kPa	771.8 ± 1.3
383.15 K, 25983 kPa	916.6 ± 1.5
383.15 K, 26000 kPa	916.6 ± 1.5
383.15 K, 26033 kPa	916.8 ± 1.5
384.15 K, 15692 kPa	771.9 ± 1.3
384.15 K, 15699 kPa	771.8 ± 1.3
384.15 K, 26358 kPa	916.5 ± 1.5
384.15 K, 26375 kPa	916.5 ± 1.5
384.15 K, 26408 kPa	916.7 ± 1.5
385.15 K, 15942 kPa	771.8 ± 1.3
385.15 K, 15948 kPa	771.7 ± 1.3
385.15 K, 26733 kPa	916.4 ± 1.5
385.15 K, 26750 kPa	916.5 ± 1.5
385.15 K, 26784 kPa	916.6 ± 1.5
386.15 K, 16192 kPa	771.8 ± 1.3
386.15 K, 16198 kPa	771.7 ± 1.3
386.15 K, 27107 kPa	916.3 ± 1.5
386.15 K, 27125 kPa	916.4 ± 1.5
386.15 K, 27159 kPa	916.6 ± 1.5
387.15 K, 16442 kPa	771.7 ± 1.3
387.15 K, 16448 kPa	771.6 ± 1.3
387.15 K, 27482 kPa	916.2 ± 1.5
387.15 K, 27500 kPa	916.3 ± 1.5
387.15 K, 27533 kPa	916.5 ± 1.5
388.15 K, 16692 kPa	771.6 ± 1.3
388.15 K, 16698 kPa	771.5 ± 1.3
388.15 K, 27856 kPa	916.1 ± 1.5
388.15 K, 27874 kPa	916.2 ± 1.5
388.15 K, 27907 kPa	916.4 ± 1.5
389.15 K, 16942 kPa	771.6 ± 1.3
389.15 K, 16948 kPa	771.5 ± 1.3
389.15 K, 28231 kPa	916 ± 1.5
389.15 K, 28249 kPa	916.1 ± 1.5
389.15 K, 28282 kPa	916.3 ± 1.5
390.15 K, 17192 kPa	771.5 ± 1.3
390.15 K, 17198 kPa	771.4 ± 1.3
390.15 K, 28605 kPa	915.9 ± 1.5
390.15 K, 28624 kPa	916 ± 1.5
390.15 K, 28657 kPa	916.2 ± 1.5
391.15 K, 17442 kPa	771.4 ± 1.3
391.15 K, 17448 kPa	771.3 ± 1.3
391.15 K, 28979 kPa	915.8 ± 1.5
391.15 K, 28998 kPa	915.9 ± 1.5
391.15 K, 29032 kPa	916.1 ± 1.5
392.15 K, 17692 kPa	771.4 ± 1.3
392.15 K, 17698 kPa	771.3 ± 1.3
392.15 K, 29354 kPa	915.7 ± 1.5
392.15 K, 29373 kPa	915.8 ± 1.5
392.15 K, 29407 kPa	916 ± 1.5
393.15 K, 17943 kPa	771.3 ± 1.3
393.15 K, 17949 kPa	771.2 ± 1.3
393.15 K, 29728 kPa	915.6 ± 1.5
393.15 K, 29782 kPa	915.9 ± 1.5
394.15 K, 18193 kPa	771.3 ± 1.3
394.15 K, 18199 kPa	771.1 ± 1.3
395.15 K, 18444 kPa	771.2 ± 1.3
395.15 K, 18450 kPa	771.1 ± 1.3
396.15 K, 18701 kPa	771 ± 1.3
397.15 K, 18951 kPa	770.9 ± 1.3
